According to ChEMBL document CHEMBL6103569, “Discovery of novel fluorine-containing parthenolide analogues as potential antitumor agents” (Eur J Med Chem, 2025):
The source made the active and inactive calls. No cut-off for these calls is given here.

Columns and labels:
Huh-7 [1] = assay: Antiproliferative activity against human Huh-7 cells assessed as inhibition of cell growth incubated for 72 hrs by MTT assay; format: functional, cell-based
[2] = Antiproliferative activity against human NCI-H820 cells assessed as inhibition of cell growth incubated for 72 hrs by MTT assay; format: functional, cell-based
PANC-1 [3] = assay: Antiproliferative activity against human PANC-1 cells assessed as inhibition of cell growth incubated for 72 hrs by MTT assay; format: functional, cell-based
NCI-H820 [4] = assay: Antitumor activity against human NCI-H820 cells xenografted in BALB/c nude mouse model assessed as reduction in tumor volume at 30 mg/kg, po administered every 2 days; format: functional, organism-based; details: time 2.0 day
NCI-H820 [5] = assay: Antitumor activity against human NCI-H820 cells xenografted in BALB/c nude mouse model assessed as reduction in tumor weight at 30 mg/kg, po administered every 2 days; format: functional, organism-based; details: time 2.0 day
[6] = biological target: Signal transducer and activator of transcription 3 (Homo sapiens) (UniProt P40763); assay: Inhibition of STAT3 phosphorylation in human NCI-H820 cells incubated for 48 hrs by Western blot analysis; format: cell-based; details: dose <= 5.0 µM
[7] = Induction of apoptosis in human NCI-H820 cells assessed as late apoptotic cells at 10 uM incubated for 48 hrs by Annexin V/FITC staining based flow cytometry analysis (reference value: 0.025%); format: functional
[8] = Induction of apoptosis in human NCI-H820 cells assessed as early apoptotic cells at 2 uM incubated for 48 hrs by Annexin V/FITC staining based flow cytometry analysis (reference value: 0.012%); format: functional
[9] = Induction of apoptosis in human NCI-H820 cells assessed as necrotic cells at 2 uM incubated for 48 hrs by Annexin V/FITC staining based flow cytometry analysis (reference value: 0.060%); format: functional
NCI-H820 [10] = assay: Inhibition of colony formation in human NCI-H820 cells incubated for 7 to 10 days by crystal violet staining based analysis; format: functional, cell-based; details: dose 0.2-5 µM, time 7-10 day
NCI-H820 [11] = assay: Inhibition of Bcl-2 expression in human NCI-H820 cells incubated for 48 hrs by Western blot analysis; format: functional, cell-based; details: dose <= 5.0 µM
PANC-1 [12] = assay: Inhibition of colony formation in human PANC-1 cells incubated for 7 to 10 days by crystal violet staining based analysis; format: functional, cell-based; details: dose 0.2-5 µM, time 7-10 day
NCI-H820 [13] = assay: Inhibition of Ki67 expression in human NCI-H820 cells incubated for 48 hrs by Western blot analysis; format: functional, cell-based; details: dose <= 5.0 µM
[14] = Induction of apoptosis in human NCI-H820 cells assessed as viable cells at 2 uM incubated for 48 hrs by Annexin V/FITC staining based flow cytometry analysis (reference value: 98%); format: functional; details: read-out: Activity
NCI-H820 [15] = assay: Downregulation of STAT3 level in human NCI-H820 cells incubated for 48 hrs by Western blot analysis; format: functional, cell-based; details: dose <= 5.0 µM
NCI-H820 [16] = assay: Downregulation of Vimentin level in human NCI-H820 cells upto 5 uM incubated for 48 hrs by Western blot analysis; format: functional, cell-based
NCI-H820 [17] = assay: Upregulation of E-cadherin level in human NCI-H820 cells upto 5 uM incubated for 48 hrs by Western blot analysis; format: functional, cell-based
[18] = Induction of apoptosis in human NCI-H820 cells assessed as necrotic cells at 10 uM incubated for 48 hrs by Annexin V/FITC staining based flow cytometry analysis (reference value: 0.060%); format: functional
NCI-H820 [19] = assay: Inhibition of cell migration in human NCI-H820 cells assessed as decrease in migration rate incubated for 48 hrs by transwell assay; format: functional, cell-based; details: dose <= 5.0 µM
NCI-H820 [20] = assay: Inhibition of cell migration in human NCI-H820 cells assessed as decrease in migration rate incubated for 48 hrs by wound healing assay; format: functional, cell-based; details: dose <= 5.0 µM
[21] = Induction of apoptosis in human NCI-H820 cells assessed as late apoptotic cells at 5 uM incubated for 48 hrs by Annexin V/FITC staining based flow cytometry analysis (reference value: 0.025%); format: functional
Huh-7 [22] = assay: Inhibition of colony formation in human Huh-7 cells incubated for 7 to 10 days by crystal violet staining based analysis; format: functional, cell-based; details: dose 0.2-5 µM, time 7-10 day
[23] = Induction of apoptosis in human NCI-H820 cells assessed as early apoptotic cells at 5 uM incubated for 48 hrs by Annexin V/FITC staining based flow cytometry analysis (reference value: 0.012%); format: functional
[24] = Induction of apoptosis in human NCI-H820 cells assessed as late apoptotic cells at 2 uM incubated for 48 hrs by Annexin V/FITC staining based flow cytometry analysis (reference value: 0.025%); format: functional
[25] = Induction of apoptosis in human NCI-H820 cells assessed as viable cells at 5 uM incubated for 48 hrs by Annexin V/FITC staining based flow cytometry analysis (reference value: 98%); format: functional; details: read-out: Activity
[26] = Induction of apoptosis in human NCI-H820 cells assessed as necrotic cells at 5 uM incubated for 48 hrs by Annexin V/FITC staining based flow cytometry analysis (reference value: 0.060%); format: functional
[27] = Induction of apoptosis in human NCI-H820 cells assessed as early apoptotic cells at 10 uM incubated for 48 hrs by Annexin V/FITC staining based flow cytometry analysis (reference value: 0.012%); format: functional

Chain of Signal transducer and activator of transcription 3 (Homo sapiens) (P40763 whole entry): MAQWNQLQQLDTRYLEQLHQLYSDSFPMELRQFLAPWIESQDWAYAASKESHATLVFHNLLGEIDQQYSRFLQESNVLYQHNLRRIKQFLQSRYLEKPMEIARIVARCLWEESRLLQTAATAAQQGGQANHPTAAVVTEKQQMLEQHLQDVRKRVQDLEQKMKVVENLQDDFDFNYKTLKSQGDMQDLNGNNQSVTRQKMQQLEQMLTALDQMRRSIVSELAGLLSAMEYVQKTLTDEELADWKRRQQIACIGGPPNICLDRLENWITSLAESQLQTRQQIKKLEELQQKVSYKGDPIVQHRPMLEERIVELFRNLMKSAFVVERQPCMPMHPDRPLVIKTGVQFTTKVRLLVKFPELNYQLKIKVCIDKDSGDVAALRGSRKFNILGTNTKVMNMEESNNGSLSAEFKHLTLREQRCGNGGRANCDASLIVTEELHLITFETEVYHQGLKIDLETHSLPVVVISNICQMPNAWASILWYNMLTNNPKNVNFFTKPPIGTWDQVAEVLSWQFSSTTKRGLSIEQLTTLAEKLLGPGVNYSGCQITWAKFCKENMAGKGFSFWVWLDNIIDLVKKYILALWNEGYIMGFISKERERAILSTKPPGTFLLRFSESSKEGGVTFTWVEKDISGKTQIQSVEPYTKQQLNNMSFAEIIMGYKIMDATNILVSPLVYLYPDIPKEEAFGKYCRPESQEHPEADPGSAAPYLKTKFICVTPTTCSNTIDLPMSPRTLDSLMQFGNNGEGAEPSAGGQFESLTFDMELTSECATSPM

C[C@@]12CC/C=C(/CC(F)(F)F)CC[C@H]3C(CN4CCCC4)C(=O)O[C@@H]3[C@@H]1O2 (some centres undefined)
IC50 (Huh-7 [1]; huh-7): 4.1 µM | IC50 ([2]; nci-h820): 6.44 µM | IC50 (PANC-1 [3]; panc-1): 5.19 µM

CCCN(C)CC1C(=O)O[C@H]2[C@H]1CC/C(CC(F)(F)F)=C\CC[C@@]1(C)O[C@@H]21 (some centres undefined)
IC50 (Huh-7 [1]; Homo sapiens, Huh-7, 72 h): 3.13 µM | IC50 ([2]; Homo sapiens, NCI-H820, 72 h): 5.52 µM | IC50 (PANC-1 [3]; Homo sapiens, PANC-1, 72 h): 3.62 µM

C[C@@]12CC/C=C(/CC(F)(F)F)CC[C@H]3C(CN4CCC(O)CC4)C(=O)O[C@@H]3[C@@H]1O2 (some centres undefined)
IC50 (Huh-7 [1]; Homo sapiens, Huh-7, 72 h): 4.38 µM | IC50 ([2]; Homo sapiens, NCI-H820, 72 h): 6.32 µM | IC50 (PANC-1 [3]; Homo sapiens, PANC-1, 72 h): 5.79 µM

CN1CCN(CC2C(=O)O[C@H]3[C@H]2CC/C(CC(F)(F)F)=C\CC[C@@]2(C)O[C@@H]32)CC1 (some centres undefined) [listing 1 of 2 here]
IC50 (Huh-7 [1]; huh-7): 14.2 µM | IC50 ([2]; nci-h820): 22.5 µM | IC50 (PANC-1 [3]; panc-1): 12.7 µM

C=C1C(=O)O[C@H]2[C@H]1CC/C(C)=C/CC[C@@]1(C)O[C@@H]21 [PARTHENOLIDE]
IC50 (Huh-7 [1]; Homo sapiens, Huh-7, 72 h): 3.6 µM | IC50 ([2]; Homo sapiens, NCI-H820, 72 h): 6.35 µM | IC50 (PANC-1 [3]; Homo sapiens, PANC-1, 72 h): 5.13 µM

CN(C)CC1C(=O)O[C@H]2[C@H]1CC/C(CC(F)(F)F)=C\CC[C@@]1(C)O[C@@H]21 (some centres undefined)
Activity (NCI-H820 [4]): Active | Activity (NCI-H820 [5]): Active

CN1CCN(CC2C(=O)O[C@H]3[C@H]2CC/C(CC(F)(F)F)=C\CC[C@@]2(C)O[C@@H]32)CC1 (some centres undefined) [listing 2 of 2 here]
IC50 (Huh-7 [1]; Homo sapiens, Huh-7, 72 h): 14.9 µM | IC50 ([2]; Homo sapiens, NCI-H820, 72 h): 30.7 µM | IC50 (PANC-1 [3]; Homo sapiens, PANC-1, 72 h): 15.8 µM

C[C@@]12CC/C=C(/CC(F)(F)F)CC[C@H]3C(CN4CC[C@@H](O)C4)C(=O)O[C@@H]3[C@@H]1O2 (some centres undefined)
IC50 (Huh-7 [1]; Homo sapiens, Huh-7, 72 h): 3.34 µM | IC50 ([2]; Homo sapiens, NCI-H820, 72 h): 4.62 µM | IC50 (PANC-1 [3]; Homo sapiens, PANC-1, 72 h): 4.88 µM

C=C1C(=O)O[C@H]2[C@H]1CC/C(CC(F)(F)F)=C\CC[C@@]1(C)O[C@@H]21
inhibition [6]: Dose-dependent-effect | Activity [7]: 5.24% | Activity [8]: 0.14% | Activity [9]: 1.4% | inhibition (NCI-H820 [10]): Active | inhibition (NCI-H820 [11]): Dose-dependent-effect | IC50 (Huh-7 [1]; Homo sapiens, Huh-7, 72 h): 2.36 µM | inhibition (PANC-1 [12]): Active | IC50 ([2]; Homo sapiens, NCI-H820, 72 h): 2.66 µM | inhibition (NCI-H820 [13]): Dose-dependent-effect | viability at 2 µM [14]: 64% | Activity (NCI-H820 [15]): Dose-dependent-effect | Activity (NCI-H820 [16]): Active | Activity (NCI-H820 [17]): Active | IC50 (PANC-1 [3]; Homo sapiens, PANC-1, 72 h): 2.16 µM | Activity [18]: 0.55% | inhibition (NCI-H820 [19]): Dose-dependent-effect | inhibition (NCI-H820 [20]): Dose-dependent-effect | Activity [21]: 6.54% | inhibition (Huh-7 [22]): Active | Activity [23]: 2.77% | Activity [24]: 0.51% | viability at 5 µM [25]: 86.8% | Activity [26]: 2.07% | Activity [27]: 0.06%

CCCNCC1C(=O)O[C@H]2[C@H]1CC/C(CC(F)(F)F)=C\CC[C@@]1(C)O[C@@H]21 (some centres undefined)
IC50 (Huh-7 [1]; Homo sapiens, Huh-7, 72 h): 4.32 µM | IC50 ([2]; Homo sapiens, NCI-H820, 72 h): 4.39 µM | IC50 (PANC-1 [3]; Homo sapiens, PANC-1, 72 h): 4.59 µM

C[C@@]12CC/C=C(/CC(F)(F)F)CC[C@H]3C(CN4CCC[C@@H]4CO)C(=O)O[C@@H]3[C@@H]1O2 (some centres undefined)
IC50 (Huh-7 [1]; Homo sapiens, Huh-7, 72 h): 3.29 µM | IC50 ([2]; Homo sapiens, NCI-H820, 72 h): 3.11 µM | IC50 (PANC-1 [3]; Homo sapiens, PANC-1, 72 h): 3.66 µM
